Here are results for two molecules from patent publication US20260306525A1, “COMBINATION THERAPY GLUCOCORTICOIDS AND GINSENOSIDE” (FYTAGORAS B.V., priority 2023, published 2026).

One test deals with il6. The settings on record: previously shown, ref [17]; cited from earlier work.
Another test has as its system GILZ. Briefly: qPCR GILZ expression in HeLa cells (GR transactivation). In kind it is cell-based, human. The following applies: beclomethasone 1 μM, Rg1 50 μM or combination. How it is done:
(§1) HeLa (human cervical cancer) cells were cultured in Dulbecco's Modified Eagle's (DMEM) High Glucose (HG) medium without phenol red supplemented with 10% Fetal Calf Serum (FCS) and 10% Glutamax (Sigma-Aldrich). The cells were maintained at 37° C. and 5% CO2. At 24 h before adding the treatment, the medium was replaced by DMEM HG with 10% charcoal-inactivated serum and 10% Glutamax (Sigma-Aldrich). The cells were exposed to short- and long-term compound treatments. […] Subsequently, TNF-α (10 ng/ml) was added along with the compound treatments for 6 h (this last step was not added in the actinomycin-D and cycloheximide experiments).
To determine levels of gene expression in zebrafish larvae, 3 dpf larvae were used in both wounded and non-wounded conditions, and after short- and long-term treatments. Groups of 15 larvae were collected in TRIzol reagent (ThermoFisher) and total RNA was isolated using miRNeasy mini kit (Qiagen, Hilden, Germany). For experiments in HeLa cells, cells were seeded in 6 well plates and after treatment, the cells were removed from the wells using TRIzol reagent and mRNA was isolated using miRNeasy mini kit (Qiagen) according to the manufacturer's instructions. The RNA samples were DNAse-treated utilizing the DNA-free™ DNA Removal Kit (ThermoFisher Scientific). The cDNA synthesis was performed using the iScript cDNA synthesis kit (Bio-Rad Laboratories, Hercules, CA, USA) using 1 μg of RNA per sample. For qPCR, 10 μM of forward primer and 10 μM of reverse primer, 12.5 μl of IQ SYBR Green Supermix (Bio-Rad Laboratories), and 2 μl of cDNA were added to the qPCR reaction mixture. […] The qPCR reactions were performed on a MyiQ-single-color real-time PCR detection system (Bio-Rad Laboratories), with initial denaturation for 3 min, 95° C., and 40 cycles of 15 s at 95.5° C., 15 s at 60° C., and 30 s at 72° C. Cycle threshold values (Ct values, i.e. the cycle numbers at which a threshold value of the fluorescence intensity was reached) were determined for each sample. The gene expression level for each sample was normalized using the expression of ppial (peptidylprolyl isomerase Ab (cyclophilin A)) for zebrafish samples, and 18S rRNA for human cells. The fold change per sample (compared to the respective control group) was calculated using the […]Ct method.
Background: Quantitative PCR measures a nucleic acid by following its amplification.

The target in the next test is T1, GR (Homo sapiens, UniProt P04150).
T1 sequence (P04150 1-777): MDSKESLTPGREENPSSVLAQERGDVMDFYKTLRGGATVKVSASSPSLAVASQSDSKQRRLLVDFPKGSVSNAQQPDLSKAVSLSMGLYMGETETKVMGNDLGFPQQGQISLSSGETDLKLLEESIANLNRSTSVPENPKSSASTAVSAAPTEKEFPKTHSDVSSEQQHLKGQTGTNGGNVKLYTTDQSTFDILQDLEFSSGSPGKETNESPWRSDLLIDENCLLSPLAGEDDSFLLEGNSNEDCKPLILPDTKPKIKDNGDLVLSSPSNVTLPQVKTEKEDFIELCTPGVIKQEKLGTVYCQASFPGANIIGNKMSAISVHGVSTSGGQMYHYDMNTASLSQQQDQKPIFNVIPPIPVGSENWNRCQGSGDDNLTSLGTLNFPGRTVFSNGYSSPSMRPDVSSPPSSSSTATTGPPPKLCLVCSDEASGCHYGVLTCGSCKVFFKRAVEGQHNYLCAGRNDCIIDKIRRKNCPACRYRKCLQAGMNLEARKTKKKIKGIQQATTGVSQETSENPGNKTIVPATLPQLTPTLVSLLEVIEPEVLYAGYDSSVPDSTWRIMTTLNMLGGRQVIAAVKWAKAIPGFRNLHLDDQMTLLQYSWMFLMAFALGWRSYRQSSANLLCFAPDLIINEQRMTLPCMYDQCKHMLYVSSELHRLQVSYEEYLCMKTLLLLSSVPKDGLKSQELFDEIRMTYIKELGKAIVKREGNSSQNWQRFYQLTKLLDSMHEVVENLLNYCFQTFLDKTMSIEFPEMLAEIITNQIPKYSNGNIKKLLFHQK
Briefly: nuclear translocation of GR in HeLa cells (immunocytochemistry). In kind it is cell-based. The arrangement: nuclear translocation by immunocytochemistry (detected with anti-GR antibody D6H2L). The settings on record: 6 h. The method, then: as §1
To determine the nuclear translocation of GR, immunocytochemistry on GR in Hela cells was performed. The cells were seeded in Nunc™ Lab-Tek™ II Chamber Slide™ System (ThermoFisher Scientific), and cultured in DMEM HG (without phenol red) supplemented with 10% charcoal inactivated serum and […] Glutamax (Sigma-Aldrich) for 48 h. […] In each experiment, 40 randomly selected cells from each treatment group were analyzed. The relative nuclear translocation of the GR was quantified by determining the integrated fluorescence intensity in the nucleus and the whole cell using Fiji ImageJ v1.53c, and these values were corrected for the mean background fluorescence. The percentage of nuclear translocation was assessed by determining the corrected density in the nucleus relative to the corrected density in the whole cell (in %).

For the molecule `CC(C)=CCC[C@](C)(O[C@@H]1O[C@H](CO)[C@@H](O)[C@H](O)[C@H]1O)[C@H]1CC[C@]2(C)[C@@H]1[C@H](O)C[C@@H]1[C@@]3(C)CC[C@H](O)C(C)(C)[C@@H]3[C@@H](O[C@@H]3O[C@H](CO)[C@@H](O)[C@H](O)[C@H]3O)C[C@]12C` [Rg1, (3β,6α, 12β)-3,12-Dihydroxydammar-24-ene-6,20-diyl bis-β-D-glucopyranoside], the “il6 expression after wounding” value in the test with il6 is reported as “transrepressed”. Besides, in the test on GILZ, the “GILZ expression, long-term” value is “did not affect the expression of these genes” and the “GILZ expression, short-term” value was “did not affect the expression of these genes”. Moreover, the “nuclear translocation level of GR” value at GR (Rg1 5, 10 and 20 μM, vs vehicle) was “only increased the translocation level compared to the vehicle treatment at 20 μM, still inducing only partial translocation”.

For the molecule `C[C@H]1C[C@H]2[C@@H]3CCC4=CC(=O)C=C[C@]4(C)[C@@]3(Cl)[C@@H](O)C[C@]2(C)[C@@]1(O)C(=O)CO` [beclomethasone, reference compound], the “il6 expression after wounding” value with il6 is recorded as “transrepressed”. In the test with GILZ, the “GILZ expression, long-term” value was “reduced over time” and the “GILZ expression, short-term” value was “strongly increased the expression of these genes after short-term treatment”. The “nuclear translocation level of GR” value at GR (beclomethasone 0.01 μM, vs vehicle) is listed as “significantly increased the translocation level compared to vehicle”. Moreover, the “nuclear translocation level of GR” value on GR (beclomethasone 0.1 and 1 μM) is “maximal nuclear translocation was observed”.
